Measured values: patent publication US20210395239A1 (Hoffmann-La Roche Inc., priority 2018, published 2021)

Molecular target: T1, hTLR9 (Homo sapiens, UniProt Q9NR96)
T1 sequence (Q9NR96 26-1032): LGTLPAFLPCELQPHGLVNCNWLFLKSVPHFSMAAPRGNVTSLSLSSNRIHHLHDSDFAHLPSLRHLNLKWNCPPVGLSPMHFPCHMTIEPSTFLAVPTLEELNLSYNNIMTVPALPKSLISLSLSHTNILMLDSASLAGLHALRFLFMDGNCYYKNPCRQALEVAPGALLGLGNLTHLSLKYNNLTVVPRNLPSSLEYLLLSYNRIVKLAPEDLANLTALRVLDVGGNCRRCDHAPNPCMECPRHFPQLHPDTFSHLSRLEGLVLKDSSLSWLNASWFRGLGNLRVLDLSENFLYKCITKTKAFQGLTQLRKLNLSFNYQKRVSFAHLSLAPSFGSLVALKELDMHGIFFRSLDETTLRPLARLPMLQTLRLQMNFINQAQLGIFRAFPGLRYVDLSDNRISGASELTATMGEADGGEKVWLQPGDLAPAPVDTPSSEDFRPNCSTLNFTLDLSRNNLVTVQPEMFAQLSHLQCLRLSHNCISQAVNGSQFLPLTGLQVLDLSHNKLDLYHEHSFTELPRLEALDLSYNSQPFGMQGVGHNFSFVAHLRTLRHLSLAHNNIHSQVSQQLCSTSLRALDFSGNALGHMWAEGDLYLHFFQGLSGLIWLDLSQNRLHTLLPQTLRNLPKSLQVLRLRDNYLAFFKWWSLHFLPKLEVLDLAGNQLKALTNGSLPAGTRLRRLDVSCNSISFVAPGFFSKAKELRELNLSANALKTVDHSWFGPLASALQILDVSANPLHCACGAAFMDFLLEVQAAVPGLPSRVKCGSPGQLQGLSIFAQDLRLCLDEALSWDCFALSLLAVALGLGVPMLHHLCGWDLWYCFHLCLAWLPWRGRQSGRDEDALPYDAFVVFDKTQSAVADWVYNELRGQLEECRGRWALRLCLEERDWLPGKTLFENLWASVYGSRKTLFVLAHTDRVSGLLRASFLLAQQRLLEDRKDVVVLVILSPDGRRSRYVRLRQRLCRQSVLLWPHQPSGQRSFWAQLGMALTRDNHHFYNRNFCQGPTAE
Assay: HEK293-Blue-hTLR-9 cells assay (SEAP reporter, ODN2006 stimulation)
Type: cell-based
Parameters: host or cells: HEK293 (HEK-Blue hTLR9)
Conditions: HEK293-Blue-hTLR9 cells, ODN2006, 20 hrs; read-out: HEK/hTLR9 IC50
From the text: HEK293-Blue-hTLR-9 Cells Assay:
A stable HEK293-Blue-hTLR-9 cell line was purchased from InvivoGen (Cat. #: hkb-htlr9, San Diego, Calif., USA). These cells were originally designed for studying the stimulation of human TLR9 by monitoring the activation of NF-κB. A SEAP (secreted embryonic alkaline phosphatase) reporter gene was placed under the control of the IFN-β minimal promoter fused to five NF-κB and AP-1-binding sites. The SEAP was induced by activating NF-κB and AP-1 via stimulating HEK-Blue hTLR9 cells with TLR9 ligands. Therefore the reporter expression was declined by TLR9 antagonist under the stimulation of a ligand, such as ODN2006 (Cat. #: tlrl-2006-1, Invivogen, San Diego, Calif., USA), for incubation of 20 hrs. The cell culture supernatant SEAP reporter activity was determined using QUANTI-Blue™ kit (Cat. #: rep-qb1, Invivogen, San Diego, Calif., USA) at a wavelength of 640 nm, a detection medium that turns purple or blue in the presence of alkaline phosphatase.
HEK293-Blue-hTLR9 cells were incubated at a density of 250,000˜450,000 cells/mL in a volume of 170 μL in a 96-well plate in Dulbecco's Modified Eagle's medium (DMEM) containing 4.5 g/L glucose, 50 U/mL penicillin, […], 2 mM L-glutamine, 10% (v/v) heat-inactivated fetal bovine serum with addition of 20 μL test compound in a serial dilution in the presence of final DMSO at 1% and 10 μL of 20 uM ODN2006 in above DMEM, perform incubation under 37° C. in a CO2 incubator for 20 hrs. Then 20 μL of the supernatant from each well was incubated with 180 μL Quanti-blue substrate solution at 37° C. for 2 h and the absorbance was read at 620-655 nm using a spectrophotometer. The signaling pathway that TLR9 activation leads to downstream NF-κB activation has been widely accepted, and therefore similar reporter assay was modified for evaluating TLR9 antagonist.

| Structure (SMILES) | IC50 [nM] |
| --- | --- |
| C[C@@H]1CN(c2ccc(C#N)c3nccnc23)C[C@H](CN2CCN(c3ccnc(N4C[C@H](N)[C@@H](F)C4)n3)CC2)O1 [Example 107, 8-[(2S,6R)-2-[[4-[2-[(3S,4S)-3-amino-4-fluoro-pyrrolidin-1-yl]pyrimidin-4-yl]piperazin-1-yl]methyl]-6-methyl-morpholin-4-yl]quinoxaline-5-carbonitrile] | 80 |
| C[C@@H]1CN(c2ccc(C#N)c3nccnc23)C[C@H](CN2CCN(c3ccnc(N4C[C@@H](N)[C@@H](F)C4)n3)CC2)O1 [Example 108, 8-[(2S,6R)-2-[[4-[2-[(3R,4S)-3-amino-4-fluoro-pyrrolidin-1-yl]pyrimidin-4-yl]piperazin-1-yl]methyl]-6-methyl-morpholin-4-yl]quinoxaline-5-carbonitrile] | 68 |
| C[C@@H]1CN(c2ccc(C#N)c3ncccc23)C[C@H](CN2CCN(c3ccnc(N4C[C@H](N)[C@@H](F)C4)n3)CC2)O1 [Example 110, 5-[(2S,6R)-2-[[4-[2-[(3S,4S)-3-amino-4-fluoro-pyrrolidin-1-yl]pyrimidin-4-yl]piperazin-1-yl]methyl]-6-methyl-morpholin-4-yl]quinoline-8-carbonitrile] | 68 |
| Cc1cc(N2CCN(C[C@H]3CN(c4ccc(C#N)c5nccnc45)C[C@@H](C)O3)CC2)nc(N2CC(N)C2)n1 [Example 112, 8-[(2S,6R)-2-[[4-[2-(3-aminoazetidin-1-yl)-6-methyl-pyrimidin-4-yl]piperazin-1-yl]methyl]-6-methyl-morpholin-4-yl]quinoxaline-5-carbonitrile] | 65 |
| C[C@@H]1CN(c2ccc(C#N)c3nccnc23)C[C@H](CN2CCN(c3ccnc(N4CC[C@@H](N)[C@H](F)C4)n3)CC2)O1 [Example 113, 8-[(2S,6R)-2-[[4-[2-[(3R,4R)-4-amino-3-fluoro-1-piperidyl]pyrimidin-4-yl]piperazin-1-yl]methyl]-6-methyl-morpholin-4-yl]quinoxaline-5-carbonitrile] | 98 |
| Cc1cc(N2CCNCC2)nc(N2CCN(C[C@H]3CN(c4ccc(C#N)c5nccnc45)C[C@@H](C)O3)CC2)n1 [Example 114, 8-[(2R,6S)-2-methyl-6-[[4-(4-methyl-6-piperazin-1-yl-pyrimidin-2-yl)piperazin-1-yl]methyl]morpholin-4-yl]quinoxaline-5-carbonitrile] | 62 |
| Cc1ccc(N2C[C@H](CN3CCN(c4nccc(N5CCNCC5)n4)CC3)O[C@H](C)C2)c2nccnc12 [Example 116, (2R,6S)-2-methyl-4-(8-methylquinoxalin-5-yl)-6-[[4-(4-piperazin-1-ylpyrimidin-2-yl)piperazin-1-yl]methyl]morpholine] | 89 |
| Cc1ccc(N2C[C@H](CN3CCN(c4ccnc(N5CCNCC5)n4)CC3)O[C@H](C)C2)c2nccnc12 [Example 117, (2R,6S)-2-methyl-4-(8-methylquinoxalin-5-yl)-6-[[4-(2-piperazin-1-ylpyrimidin-4-yl)piperazin-1-yl]methyl]morpholine] | 109 |
| C[C@@H]1CN(c2ccc(C#N)c3nccnc23)C[C@H](CN2CCN(c3nccc(N4C[C@@H](N)[C@H](F)C4)n3)CC2)O1 [Example 119, 8-[(2S,6R)-2-[[4-[4-[(3R,4R)-3-amino-4-fluoro-pyrrolidin-1-yl]pyrimidin-2-yl]piperazin-1-yl]methyl]-6-methyl-morpholin-4-yl]quinoxaline-5-carbonitrile] | 94 |

Molecules with a lower IC50, results first:

| IC50 [nM] | Structure (SMILES) |
| --- | --- |
| 51 | C[C@@H]1CN(c2ccc(C#N)c3nccnc23)C[C@H](CN2CCN(c3nccc(N4CC(N)C4)n3)CC2)O1 [Example 118, 8-[(2S,6R)-2-[[4-[4-(3-aminoazetidin-1-yl)pyrimidin-2-yl]piperazin-1-yl]methyl]-6-methyl-morpholin-4-yl]quinoxaline-5-carbonitrile] |
| 46 | CO[C@H]1CN(c2nc(C)cc(N3CCN(C[C@H]4CN(c5ccc(C#N)c6nccnc56)C[C@@H](C)O4)CC3)n2)C[C@@H]1N [Example 106, 8-[(2S,6R)-2-[[4-[2-[(3S,4S)-3-amino-4-methoxy-pyrrolidin-1-yl]-6-methyl-pyrimidin-4-yl]piperazin-1-yl]methyl]-6-methyl-morpholin-4-yl]quinoxaline-5-carbonitrile] |
| 46 | COC1CCN(c2nccc(N3CCN(C[C@H]4CN(c5ccc(C#N)c6ncccc56)C[C@@H](C)O4)CC3)n2)CC1N (stereo partly drawn) [Example 109, 5-[(2S,6R)-2-[[4-[2-(3-amino-4-methoxy-1-piperidyl)pyrimidin-4-yl]piperazin-1-yl]methyl]-6-methyl-morpholin-4-yl]quinoline-8-carbonitrile] |
| 44 | CO[C@@H]1CN(c2cc(C)nc(N3CCN(C[C@H]4CN(c5ccc(C#N)c6nccnc56)C[C@@H](C)O4)CC3)n2)C[C@H]1N [Example 121, 8-[(2S,6R)-2-[[4-[4-[(3R,4R)-3-amino-4-methoxy-pyrrolidin-1-yl]-6-methyl-pyrimidin-2-yl]piperazin-1-yl]methyl]-6-methyl-morpholin-4-yl]quinoxaline-5-carbonitrile] |
| 38 | Cc1cc(N2C[C@@H](N)[C@@H](F)C2)nc(N2CCN(C[C@H]3CN(c4ccc(C#N)c5nccnc45)C[C@@H](C)O3)CC2)n1 [Example 115, 8-[(2S,6R)-2-[[4-[4-[(3R,4S)-3-amino-4-fluoro-pyrrolidin-1-yl]-6-methyl-pyrimidin-2-yl]piperazin-1-yl]methyl]-6-methyl-morpholin-4-yl]quinoxaline-5-carbonitrile] |
| 37 | C[C@@H]1CN(c2ccc(C#N)c3nccnc23)C[C@H](CN2CCN(c3ccnc(N4CC[C@H](N)[C@H](F)C4)n3)CC2)O1 [Example 111, 8-[(2S,6R)-2-[[4-[2-[(3R,4S)-4-amino-3-fluoro-1-piperidyl]pyrimidin-4-yl]piperazin-1-yl]methyl]-6-methyl-morpholin-4-yl]quinoxaline-5-carbonitrile] |
| 31 | CO[C@@H]1CN(c2cc(C)nc(N3CCN(C[C@H]4CN(c5ccc(C#N)c6nccnc56)C[C@@H](C)O4)CC3)n2)C[C@@H]1N [Example 120, 8-[(2S,6R)-2-[[4-[4-[(3S,4R)-3-amino-4-methoxy-pyrrolidin-1-yl]-6-methyl-pyrimidin-2-yl]piperazin-1-yl]methyl]-6-methyl-morpholin-4-yl]quinoxaline-5-carbonitrile] |
| 31 | CO[C@H]1CN(c2cc(C)nc(N3CCN(C[C@H]4CN(c5ccc(C#N)c6nccnc56)C[C@@H](C)O4)CC3)n2)C[C@H]1N [Example 122, 8-[(2S,6R)-2-[[4-[4-[(3R,4S)-3-amino-4-methoxy-pyrrolidin-1-yl]-6-methyl-pyrimidin-2-yl]piperazin-1-yl]methyl]-6-methyl-morpholin-4-yl]quinoxaline-5-carbonitrile] |
| 31 | Cc1cc(N2CC(N)C2)nc(N2CCN(C[C@H]3CN(c4ccc(C#N)c5nccnc45)C[C@@H](C)O3)CC2)n1 [Example 123, 8-[(2S,6R)-2-[[4-[4-(3-aminoazetidin-1-yl)-6-methyl-pyrimidin-2-yl]piperazin-1-yl]methyl]-6-methyl-morpholin-4-yl]quinoxaline-5-carbonitrile] |
